The source of these data is US6172042A, “Synthetic peptides that inhibit IL-6 activity” (Yeda Research and Development Co. LTD, priority 1995, dated 2001).

Where a SMILES comes first, the peptide text is derived from it.

This assay relates to B9 plasmacytoma-derived cells. The following applies: 250 μg/ml.

Description: To assay the biological activity of the peptides as inhibitors of IL-6 action against growth of plasmacytoma cells, a hybridoma cell line B9 whose growth is IL-6 dependent (Helle et al, 1988) was used. The B9 cells were cultured in suspension in growth medium RPMI 1640 (Biolabs Ltd., Israel) with 10% heat-inactivated fetal calf serum and 4 U/ml IL-6.
Prior to assay, the B9 cells were washed and incubated for 5 hours in growth medium but without IL-6. The cells were centrifuged, resuspended in growth medium with 2.5 units/ml (i.e. 7.5 IU/ml) of IL-6 and seeded in a 96-well microplate (Nunc, Denmark) at 50,000 cells in a final volume of 0.2 ml per well. A 25 µl of water solution with appropriate peptide concentration was included in the final volume of each well, i.e. the peptides at concentrations ranging from 62.5 μg/ml to 250 μg/ml (as well as a 0 μg/ml control) were added together with the IL-6. […] The optical absorbance at 530 nm wavelength of each well was measured as specified by the manufacturer. The absorbance is directly proportional to the number of living cells in the well as verified in calibration experiments from 50,000 to 10^6 B9 cells (0.25 OD530 corresponding to 5×10^5 B9 cells under the present experimental conditions). The results were expressed as the difference between final cell density with IL-6 and without IL-6. […]

As to `CSCC[C@H](NC(=O)[C@H](Cc1c[nH]c2ccccc12)NC(=O)[C@@H](NC(=O)[C@@H](NC(=O)[C@H](Cc1ccccc1)NC(=O)[C@@H](NC(=O)[C@H](CCCCN)NC(=O)[C@H](CO)NC(=O)[C@H](CCCNC(=N)N)NC(=O)[C@H](CCC(=O)O)NC(=O)[C@H](C)NC(=O)[C@H](CCCNC(=N)N)NC(=O)[C@H](Cc1ccc(O)cc1)NC(=O)[C@H](CCCNC(=N)N)NC(=O)[C@@H](N)CC(C)C)[C@@H](C)O)[C@@H](C)O)[C@@H](C)O)C(=O)N[C@H](C(=O)O)C(C)C` [peptide 1063, LRYRAERSKTFTTWMV] (H-LRYRAERSKTFTTWMV-OH), the “growth inhibition of B9 cells” value stood at 99%.
